Structures can show the parent of a compound that is named as a salt.

For the assay, the target named is RORγ-LBD (Homo sapiens (Human), UniProt P51449). Kind of assay: RORγ-Ligand Binding Domain (LBD) TR-FRET Assay Protocol II. The note with it: purified RORγ-LBD, SRC1 peptide, overnight at 4° C. The format is biochemical. On the procedure: Part II—Procedures for RORγ-Ligand Binding Domain TR-FRET Assay Protocol II
Sequence of RORγ-LBD (P51449 269-508): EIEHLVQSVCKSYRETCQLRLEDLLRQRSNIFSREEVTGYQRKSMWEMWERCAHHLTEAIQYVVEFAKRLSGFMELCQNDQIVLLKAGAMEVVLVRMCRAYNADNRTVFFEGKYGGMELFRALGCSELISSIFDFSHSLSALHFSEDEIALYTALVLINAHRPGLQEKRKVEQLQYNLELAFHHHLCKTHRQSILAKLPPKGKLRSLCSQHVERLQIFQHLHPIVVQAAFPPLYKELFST
HIS-tagged RORγ-LBD protein was expressed in SF9 cells using a baculovirus expression system. The RORγ-LBD protein was purified by […]. Separately, SF9 cells not expressing recombinant protein were lysed in TBS buffer (25 mM Tris, pH 8.0, 150 mM NaCl) under sonication. The lysate was added to the purified RORγ-LBD in a volume equivalent of 0.75 μL lysate (from 30,000 SF9 cells) per 75 femtomol of RORγ-LBD protein. The resulting mixture was diluted in assay buffer (50 mM Tris pH 7.0, 50 mM KCl, 1 mM EDTA, 0.1 mM DTT, 0.01% BSA) to obtain RORγ-LBD protein at a final concentration of 3 nM.
Compounds to be tested were injected to the assay plate using Acoustic Droplet Ejection technology by Echo 550 liquid handler (Labcyte, Calif.).
A stock of biotinylated-LXXLL peptide from coactivator SRC1 (Biotin-[…]) was prepared in assay buffer and added to each well (100 nM final concentration). A solution of Europium tagged anti-HIS antibody (1.25 nM final concentration) and APC-conjugated streptavidin (8 nM final concentration) were also added to each well.
The final assay mixture was incubated overnight at 4° C., and the fluorescence signal was measured on an Envision plate reader: (Excitation filter=340 nm; APC emission=665 nm; Europium emission=615 nm; dichroic mirror=D400/D630; delay time=100 μs, integration time=200 μs). The EC50 value for test compounds was calculated from the quotient of the fluorescence signal at 665 nm divided by the fluorescence signal at 615 nm
Regarding `N[C@H](CO)C(=O)NC1Cc2ncc(NC(=O)c3c(Cl)cccc3Cl)cc2N(S(=O)(=O)c2cccc(C(F)(F)F)c2)C1` (stereo partly shown) [Compound 60], the EC50 was 23 nM.

`NC1Cc2ncc(NC(=O)c3c(Cl)cccc3Cl)cc2N(S(=O)(=O)c2cccc(C3CC3)c2)C1` (stereo not shown) [Compound 70] returned an EC50 of 38 nM.

As for `Cc1cccc(S(=O)(=O)N2C[C@H](NC(=O)[C@H](C)O)Cc3ncc(NC(=O)c4c(Cl)cccc4Cl)cc32)c1` [Compound 67], the 50% effective concentration (EC50) came out at 23 nM.

The compound `Cc1cccc(S(=O)(=O)N2CC(CO)Cc3ncc(NC(=O)c4c(Cl)cccc4Cl)cc32)c1` (stereo not shown) [Compound 94, 2,6-dichloro-N-(7-(hydroxymethyl)-5-(m-tolylsulfonyl)-5,6,7,8-tetrahydro-1,5-naphthyridin-3-yl)benzamide] came in with an EC50 of 20 nM.

Regarding `N[C@H]1Cc2ncc(NC(=O)c3c(Cl)cccc3Cl)cc2N(S(=O)(=O)c2cccc(C(F)(F)F)c2)C1` [Compound 53], the response was half-maximal at 25 nM (EC50).

Regarding `COC(=O)N[C@@H]1Cc2ncc(NC(=O)c3c(Cl)cccc3Cl)cc2N(S(=O)(=O)c2cccc(C)c2)C1` [Compound 42, (R)-methyl (7-(2,6-dichlorobenzamido)-1-(m-tolylsulfonyl)-1,2,3,4-tetrahydro-1,5-naphthyridin-3-yl)carbamate], the EC50 stood at 25 nM.

`O=C(Nc1cnc2c(c1)N(S(=O)(=O)c1cccc(C(F)(F)F)c1)C[C@@H](N1CCOC1=O)C2)c1c(Cl)cccc1Cl` [Compound 97, (S)-2,6-dichloro-N-(7-(2-oxooxazolidin-3-yl)-5-((3-(trifluoromethyl)phenyl)sulfonyl)-5,6,7,8-tetrahydro-1,5-naphthyridin-3-yl)benzamide] showed an EC50 of 42 nM.

With `Cc1nn(C(F)F)cc1S(=O)(=O)N1C[C@@H](CN2CC[C@@H](O)C2)Cc2ncc(NC(=O)[C@@H](C)C(C)(C)C)cc21` [Compound 96, (S)-N-((R)-5-((1-(difluoromethyl)-3-methyl-1H-pyrazol-4-yl)sulfonyl)-7-(((R)-3-hydroxypyrrolidin-1-yl)methyl)-5,6,7,8-tetrahydro-1,5-naphthyridin-3-yl)-2,3,3-trimethylbutanamide], it took 168 nM to reach a half-maximal effect (EC50).

As to `Cc1cccc(S(=O)(=O)N2C[C@H](C)Oc3ncc(NC(=O)C(C)C(F)(F)F)cc32)c1` (stereo partly shown) [Compound 30], the EC50 was 111 nM.

Compound `Cc1nn(C(F)F)cc1S(=O)(=O)N1C[C@H](NC(=O)OC(C)C)Cc2ncc(NC(=O)c3c(F)cccc3Cl)cc21` [Compound 66] returned an EC50 of 204 nM.

In turn, `Cc1nn(C(F)F)cc1S(=O)(=O)N1C[C@H](CO)Cc2ncc(NC(=O)[C@@H](C)C(C)(C)C)cc21` [Compound 92, (S)-N-((R)-5-((1-(difluoromethyl)-3-methyl-1H-pyrazol-4-yl)sulfonyl)-7-(hydroxymethyl)-5,6,7,8-tetrahydro-1,5-naphthyridin-3-yl)-2,3,3-trimethylbutanamide] gave an EC50 of 10000 nM.

As to `Cc1cccc(S(=O)(=O)N2C[C@H](N)Cc3ncc(NC(=O)c4c(Cl)cccc4Cl)cc32)c1` [Compound 40, (R)-N-(7-amino-5-(m-tolylsulfonyl)-5,6,7,8-tetrahydro-1,5-naphthyridin-3-yl)-2,6-dichlorobenzamide trifluoroacetic acid salt], the EC50 was determined as 18 nM.

Consider `C[C@H]1CN(S(=O)(=O)c2cccc(C3CC3)c2)c2cc(NC(=O)c3c(Cl)cccc3Cl)cnc2O1` [Compound 35], for which a half-maximal response (EC50) required 7 nM.

`O=C(Nc1cnc2c(c1)N(S(=O)(=O)c1cccc(Cl)c1)C[C@H](CN1C(=O)COC1=O)O2)c1c(Cl)cccc1Cl` [Compound 85] yielded an EC50 of 20 nM.

In the case of `Cc1cccc(S(=O)(=O)N2C[C@H](NC(=O)OC(C)(C)C)Cc3ncc(NC(=O)c4c(Cl)cccc4Cl)cc32)c1` [Compound 39, (R)-tert-butyl (7-(2,6-dichlorobenzamido)-1-(m-tolylsulfonyl)-1,2,3,4-tetrahydro-1,5-naphthyridin-3-yl)carbamate], the EC50 came to 25 nM.

Compound `CC(=O)N[C@@H]1Cc2ncc(NC(=O)c3c(Cl)cccc3Cl)cc2N(S(=O)(=O)c2cccc(C)c2)C1` [Compound 41, (R)-N-(7-acetamido-5-(m-tolylsulfonyl)-5,6,7,8-tetrahydro-1,5-naphthyridin-3-yl)-2,6-dichlorobenzamide] had an EC50 of 18 nM.

`Cc1nn(C(F)F)cc1S(=O)(=O)N1C[C@@H](NC(=O)C(F)(F)F)Cc2ncc(NC(=O)c3c(F)cccc3Cl)cc21` [Compound 49] had an EC50 of 12 nM.

`CN(C)C(=O)NC1Cc2ncc(NC(=O)c3c(Cl)cccc3Cl)cc2N(S(=O)(=O)c2cccc(C(F)(F)F)c2)C1` (stereo not shown) [Compound 48] came in with an EC50 of 10 nM.

The compound `O=C(Nc1cnc2c(c1)N(S(=O)(=O)c1cccc(C(F)(F)F)c1)CC(N1CCOC1=O)C2)c1c(Cl)cccc1Cl` (stereo in doubt) [Compound 98, (R)-2,6-dichloro-N-(7-(2-oxooxazolidin-3-yl)-5-((3-(trifluoromethyl)phenyl)sulfonyl)-5,6,7,8-tetrahydro-1,5-naphthyridin-3-yl)benzamide] gave an EC50 of 17 nM.

As for `CN1CCN(C[C@H]2CN(S(=O)(=O)c3cccc(Cl)c3)c3cc(NC(=O)c4c(Cl)cccc4Cl)cnc3O2)CC1=O` [Compound 87, (S)-2,6-dichloro-N-(1-((3-chlorophenyl)sulfonyl)-3-((4-methyl-3-oxopiperazin-1-yl)methyl)-2,3-dihydro-1H-pyrido[2,3-b][1,4]oxazin-7-yl)benzamide], the EC50 is 52 nM.

Compound `CCNC1Cc2ncc(NC(=O)c3c(Cl)cccc3Cl)cc2N(S(=O)(=O)c2cccc(C)c2)C1` (stereo not shown) [Compound 77] returned an EC50 of 553 nM.

As for `CC(C)(C)OC(=O)N[C@@H]1Cc2ncc(NC(=O)c3c(Cl)cccc3Cl)cc2N(S(=O)(=O)c2cccc(C(F)(F)F)c2)C1` [Compound 59], the EC50 came to 24 nM.

Compound `O=C(Nc1cnc2c(c1)N(S(=O)(=O)c1cccc(C(F)(F)F)c1)C[C@@H](N1CCCC1=O)C2)c1c(Cl)cccc1Cl` [Compound 81] showed an EC50 of 35 nM.

On to `CC(=O)NC1COc2ncc(NC(=O)c3c(Cl)cccc3Cl)cc2N(S(=O)(=O)c2cccc(C)c2)C1` (stereo not shown) [Compound 75, N-[7-acetylamino-5-(toluene-3-sulfonyl)-5,6,7,8-tetrahydro-9-oxa-1,5-diaza-benzocyclohepten-3-yl]-2,6-dichloro-benzamide], for which the response was half-maximal at 291 nM (EC50).

Compound `Cc1cccc(S(=O)(=O)N2CC(N)COc3ncc(NC(=O)c4c(Cl)cccc4Cl)cc32)c1` (stereo not shown) [Compound 74, N-[7-amino-5-(toluene-3-sulfonyl)-5,6,7,8-tetrahydro-9-oxa-1,5-diaza-benzocyclohepten-3-yl]-2,6-dichloro-benzamide] gave an EC50 of 174 nM.

With `CN1CCN(C[C@H]2CN(S(=O)(=O)c3cccc(Cl)c3)c3cc(NC(=O)c4c(Cl)cccc4Cl)cnc3O2)CC1` [Compound 91], a half-maximal response (EC50) required 1330 nM.

In turn, `CCOC(=O)N[C@H]1Cc2ncc(NC(=O)c3c(Cl)cccc3Cl)cc2N(S(=O)(=O)c2cccc(C(F)(F)F)c2)C1` [Compound 63] gave an EC50 of 26 nM.

As to `O=C(Nc1ccc2c(c1)N(S(=O)(=O)c1cccc(Cl)c1)C[C@H](CN1CCCC1=O)O2)c1c(Cl)cccc1Cl` [Compound 80, 2,6-dichloro-N-[(S)-4-(3-chloro-benzenesulfonyl)-2-(2-oxopyrrolidin-1-ylmethyl)-3,4-dihydro-2H-benzo[1,4]oxazin-6-yl]-benzamide], the EC50 worked out at 26 nM.

The compound `CC(C)OC(=O)N[C@@H]1Cc2ncc(NC(=O)c3c(Cl)cccc3Cl)cc2N(S(=O)(=O)c2cccc(C(F)(F)F)c2)C1` [Compound 58] registered an EC50 of 13 nM.

In turn, `CN1CC(=O)N(C[C@H]2CN(S(=O)(=O)c3cccc(Cl)c3)c3cc(NC(=O)c4c(Cl)cccc4Cl)cnc3O2)C1=O` [Compound 86, (S)-2,6-dichloro-N-(1-((3-chlorophenyl)sulfonyl)-3-((3-methyl-2,5-dioxoimidazolidin-1-yl)methyl)-2,3-dihydro-1H-pyrido[2,3-b][1,4]oxazin-7-yl)benzamide] gave an EC50 of 10 nM.

Take `CC(C)OC(=O)N[C@H]1Cc2ncc(NC(=O)c3c(Cl)cccc3Cl)cc2N(S(=O)(=O)c2cccc(C(F)(F)F)c2)C1` [Compound 47]: the EC50 came out at 36 nM.

For `Cc1nn(C(F)F)cc1S(=O)(=O)N1C[C@@H](NC(=O)OC(C)C)Cc2ncc(NC(=O)c3c(F)cccc3Cl)cc21` [Compound 65], the midpoint of the response, the EC50, lay at 9 nM.

In turn, `CC(=O)NC1Cc2ncc(NC(=O)c3c(Cl)cccc3Cl)cc2N(S(=O)(=O)c2cccc(Cl)c2)C1` (stereo not shown) [Compound 46] returned a 50% effective concentration (EC50) of 72 nM.

In turn, `CN(C)C[C@H]1CN(S(=O)(=O)c2cccc(Cl)c2)c2cc(NC(=O)c3c(Cl)cccc3Cl)cnc2O1` [Compound 88] gave an EC50 of 42 nM.

Compound `CC(=O)NC[C@H]1CN(S(=O)(=O)c2cccc(C3CC3)c2)c2cc(NC(=O)c3c(Cl)cccc3Cl)cnc2O1` [Compound 43] had an EC50 of 24 nM.

In the case of `C[C@H](N)C(=O)N[C@@H]1Cc2ncc(NC(=O)c3c(Cl)cccc3Cl)cc2N(S(=O)(=O)c2cccc(C(F)(F)F)c2)C1` [Compound 55], the EC50 worked out at 32 nM.

In the case of `N[C@H]1Cc2ncc(NC(=O)c3c(Cl)cccc3Cl)cc2N(S(=O)(=O)c2cccc(C(F)(F)F)c2)C1` [Compound 57], a half-maximal effect (EC50) was put at 24 nM.

Source of the values: patent US9657033B2, “Tetrahydronaphthyridine and related bicyclic compounds for inhibition of RORγ activity and the treatment of disease” (Merck Sharp & Dohme Corp., priority 2012, dated 2017).
